Experimental data reported in US9034921B2, “Diphenylmethane derivatives as SGLT2 inhibitors” (GREEN CROSS CORPORATION, priority 2011, dated 2015).

These molecules were tested against human SGLT2 (Homo sapiens (Human), UniProt P31639) (assay: Inhibitory effects on human SGLT2 activities (14C-AMG uptake, sodium-dependent glucose transport assay)). Details: CHO cells stably expressing hSGLT2, 37° C., 2 h, single determinations.
Type: cell-based
Outline: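 CHO cells stably expressing hSGLT2 were preincubated 10 min at 37 °C in choline (Na+-free) buffer, then exposed 2 h at 37 °C to compound in Na+ uptake buffer with 8 μM 14C-AMG and 1 mM unlabeled AMG. Radioactivity was scintillation counted; IC50 came from nonlinear regression.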

human SGLT2, sequence (P31639 whole entry): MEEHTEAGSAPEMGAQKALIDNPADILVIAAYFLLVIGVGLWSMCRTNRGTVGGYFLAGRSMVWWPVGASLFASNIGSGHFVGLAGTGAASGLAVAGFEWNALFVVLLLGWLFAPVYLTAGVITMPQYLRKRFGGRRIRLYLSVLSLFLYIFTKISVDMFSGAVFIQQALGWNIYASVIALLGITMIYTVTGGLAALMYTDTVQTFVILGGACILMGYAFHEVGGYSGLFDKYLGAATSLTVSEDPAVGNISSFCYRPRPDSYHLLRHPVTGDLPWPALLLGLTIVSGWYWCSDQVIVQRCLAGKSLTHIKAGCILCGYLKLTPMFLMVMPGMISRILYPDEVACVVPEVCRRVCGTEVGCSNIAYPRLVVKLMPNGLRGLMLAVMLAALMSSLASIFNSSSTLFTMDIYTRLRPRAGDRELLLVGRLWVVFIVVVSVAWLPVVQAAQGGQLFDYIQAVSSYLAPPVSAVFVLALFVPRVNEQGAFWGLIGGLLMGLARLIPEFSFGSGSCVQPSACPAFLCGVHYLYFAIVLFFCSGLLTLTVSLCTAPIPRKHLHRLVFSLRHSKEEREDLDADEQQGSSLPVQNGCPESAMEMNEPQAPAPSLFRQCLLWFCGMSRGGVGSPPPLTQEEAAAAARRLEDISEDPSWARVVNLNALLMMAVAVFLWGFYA

| IC50 [nM] | SMILES |
| --- | --- |
| 1.64 | OC[C@H]1O[C@@H](c2cc(Cc3ccc4c(c3)OCCO4)c(Cl)cc2O)[C@H](O)[C@@H](O)[C@@H]1O [Example E052, (2S,3R,4R,5S,6R)-2-(4-Chloro-5-((2,3-dihydrobenzo[b][1,4]dioxin-6-yl)methyl)-2-hydroxyphenyl)-6-(hydroxymethyl)-tetrahydro-2H-pyran-3,4,5-triol] |
| 18.1 | OC[C@H]1O[C@@H](c2cc(Cc3ccc(C4CC4)cc3)c(Cl)c3ccoc23)[C@H](O)[C@@H](O)[C@@H]1O [Example E173, (2S,3R,4R,5S,6R)-2-(4-Chloro-5-(4-cyclopropylbenzyl)benzofuran-7-yl)-6-(hydroxymethyl)tetrahydro-2H-pyran-3,4,5-triol] |
| 49.4 | COc1ccc(Cc2cc([C@@H]3O[C@H](CO)[C@@H](O)[C@H](O)[C@H]3O)c3oc(C)c(OC)c3c2Cl)cc1 [Example E201, (2S,3R,4R,5S,6R)-2-(4-Chloro-3-methoxy-5-(4-methoxybenzyl)-2-methylbenzofuran-7-yl)-6-(hydroxymethyl)tetrahydro-2H-pyran-3,4,5-triol] |
| 8.63 | OC[C@H]1O[C@@H](c2ccc(Cl)c(Cc3ccc4nccnc4c3)c2)[C@H](O)[C@@H](O)[C@@H]1O [Example E026, (2S,3R,4R,5S,6R)-2-(4-Chloro-3-(quinoxalin-6-ylmethyl)phenyl)-6-(hydroxymethyl)tetrahydro-2H-pyran-3,4,5-triol] |
| 1.78 | COc1ccc(Cc2cc([C@@H]3O[C@H](CO)[C@@H](O)[C@H](O)[C@H]3O)c3c(c2Cl)OC(C)C3)cc1 (stereo partly drawn) [Example E130, (2S,3R,4R,5S,6R)-2-(7-Chloro-6-(4-methoxybenzyl)-2-methyl-2,3-dihydrobenzofuran-4-yl)-6-(hydroxymethyl)tetrahydro-2H-pyran-3,4,5-triol] |
| 574 | CCCc1ccc(Cc2cc([C@@H]3O[C@H](CO)[C@@H](O)[C@H](O)[C@H]3O)c3occc3c2Cl)cc1 [Example E174, (2S,3R,4R,5S,6R)-2-(4-Chloro-5-(4-propylbenzyl)benzofuran-7-yl)-6-(hydroxymethyl)tetrahydro-2H-pyran-3,4,5-triol] |
| 1.23 | OC[C@H]1O[C@@H](c2ccc(Cl)c(Cc3ccc4c(c3)OCCO4)c2)[C@H](O)[C@@H](O)[C@@H]1O [Example E049, (2S,3R,4R,5S,6R)-2-(4-Chloro-3-((2,3-dihydrobenzo[b][1,4]dioxin-6-yl)methyl)phenyl)-6-(hydroxymethyl)-tetrahydro-2H-pyran-3,4,5-triol] |
| 1.8 | CC1Cc2c(Cl)c(Cc3ccc(C(C)C)cc3)cc([C@@H]3O[C@H](CO)[C@@H](O)[C@H](O)[C@H]3O)c2O1 (stereo partly drawn) [Example E149, (2S,3R,4R,5S,6R)-2-(4-Chloro-5-(4-isopropylbenzyl)-2-methyl-2,3-dihydrobenzofuran-7-yl)-6-(hydroxymethyl)tetrahydro-2H-pyran-3,4,5-triol] |
| 8.65 | CO[C@H]1O[C@@H](c2ccc(Cl)c(Cc3ccc4c(c3)OCCO4)c2)[C@H](O)[C@@H](O)[C@@H]1O [Example E092, (2S,3R,4R,5S,6S)-2-(4-Chloro-3-((2,3-dihydrobenzo[b][1,4]dioxin-6-yl)methyl)phenyl)-6-methoxy-tetrahydro-2H-pyran-3,4,5-triol] |
| 0.574 | C=C(C)c1ccc(Cc2cc([C@@H]3O[C@H](CO)[C@@H](O)[C@H](O)[C@H]3O)c3c(c2Cl)OCC3)cc1 [Example E180, (2S,3R,4R,5S,6R)-2-(7-Chloro-6-(4-(prop-1-en-2-yl)benzyl)-2,3-dihydrobenzofuran-4-yl)-6-(hydroxymethyl)tetrahydro-2H-pyran-3,4,5-triol] |
| 5.2 | C#CC(C)(O)c1ccc(Cc2cc([C@@H]3O[C@H](CO)[C@@H](O)[C@H](O)[C@H]3O)c3c(c2Cl)OCC3)cc1 (stereo partly drawn) [Example E179, (2S,3R,4R,5S,6R)-2-(7-Chloro-6-(4-(2-hydroxybut-3-yn-2-yl)benzyl)-2,3-dihydrobenzofuran-4-yl)-6-(hydroxymethyl)tetrahydro-2H-pyran-3,4,5-triol] |
| 1.6 | OC[C@H]1O[C@@H](c2cc(Cc3ccc(OC4CCCC4)cc3)c(Cl)c3c2CCO3)[C@H](O)[C@@H](O)[C@@H]1O [Example E232, (2S,3R,4R,5S,6R)-2-(7-Chloro-6-(4-(cyclopentyloxy)benzyl)-2,3-dihydrobenzofuran-4-yl)-6-(hydroxymethyl)-tetrahydro-2H-pyran-3,4,5-triol] |
| 1.46 | CC(F)c1ccc(Cc2cc([C@@H]3O[C@H](CO)[C@@H](O)[C@H](O)[C@H]3O)c3c(c2Cl)OCC3)cc1 (stereo partly drawn) [Example E170, (2S,3R,4R,5S,6R)-2-(7-Chloro-6-(4-(1-fluoroethyl)benzyl)-2,3-dihydrobenzofuran-4-yl)-6-(hydroxymethyl)tetrahydro-2H-pyran-3,4,5-triol] |
| 1.03 | CCOc1ccc(Cc2cc([C@@H]3O[C@H](CO)[C@@H](O)[C@H](O)[C@H]3O)c3c(c2Cl)CC(C)S3)cc1 (stereo partly drawn) [Example E143, (2S,3R,4R,5S,6R)-2-(4-Chloro-5-(4-ethoxybenzyl)-2-methyl-2,3-dihydrobenzo[b]thiophen-7-yl)-6-(hydroxymethyl)tetrahydro-2H-pyran-3,4,5-triol] |
| 1.38 | C=Cc1ccc(Cc2cc([C@@H]3O[C@H](CO)[C@@H](O)[C@H](O)[C@H]3O)c3c(c2Cl)CCO3)cc1 [Example E119, (2S,3R,4R,5S,6R)-2-(4-Chloro-5-(4-vinylbenzyl)-2,3-dihydrobenzofuran-7-yl)-6-(hydroxymethyl)tetrahydro-2H-pyran-3,4,5-triol] |
| 2.31 | Cn1cc2cc(Cc3cc([C@@H]4O[C@H](CO)[C@@H](O)[C@H](O)[C@H]4O)ccc3Cl)ccc2n1 [Example E036, (2S,3R,4R,5S,6R)-2-(4-Chloro-3-((2-methyl-2H-indazol-5-yl)methyl)phenyl)-6-(hydroxymethyl)tetrahydro-2H-pyran-3,4,5-triol] |
| 9.47 | OC[C@H]1O[C@@H](c2ccc(Cl)c(Cc3ccc4c(c3)COCO4)c2)[C@H](O)[C@@H](O)[C@@H]1O [Example E068, (2S,3R,4R,5S,6R)-2-(3-((4H-Benzo[d][1,3]dioxin-6-yl)methyl)-4-chlorophenyl)-6-(hydroxymethyl)-tetrahydro-2H-pyran-3,4,5-triol] |
| 4.16 | CCOc1ccc(Cc2cc([C@@H]3O[C@H](CO)[C@@H](O)[C@H](O)[C@H]3O)c3c(c2Cl)C(C)(C)CO3)cc1 [Example E223, (2S,3R,4R,5S,6R)-2-(4-Chloro-5-(4-ethoxybenzyl)-3,3-dimethyl-2,3-dihydrobenzofuran-7-yl)-6-(hydroxymethyl)-tetrahydro-2H-pyran-3,4,5-triol] |
| 1.11 | CC1Cc2c(Cl)c(Cc3ccc(C4CC4)cc3)cc([C@@H]3O[C@H](CO)[C@@H](O)[C@H](O)[C@H]3O)c2O1 (stereo partly drawn) [Example E133, (2S,3R,4R,5S,6R)-2-(4-Chloro-5-(4-cyclopropylbenzyl)-2-methyl-2,3-dihydrobenzofuran-7-yl)-6-(hydroxymethyl)tetrahydro-2H-pyran-3,4,5-triol] |
| 6.12 | CCOc1ccc(Cc2cc([C@@H]3O[C@H](CO)[C@@H](O)[C@H](O)[C@H]3O)c3c(c2Cl)N(C)CCO3)cc1 [Example E213, (2S,3R,4R,5S,6R)-2-(5-Chloro-6-(4-ethoxybenzyl)-4-methyl-3,4-dihydro-2H-benzo[b][1,4]oxazin-8-yl)-6-(hydroxymethyl)tetrahydro-2H-pyran-3,4,5-triol] |
| 1.96 | CC(C)Oc1ccc(Cc2cc([C@@H]3O[C@H](CO)[C@@H](O)[C@H](O)[C@H]3O)c3c(c2Cl)OCC3)cc1 [Example E205, (2S,3R,4R,5S,6R)-2-(7-Chloro-6-(4-isopropoxybenzyl)-2,3-dihydrobenzofuran-4-yl)-6-(hydroxymethyl)tetrahydro-2H-pyran-3,4,5-triol] |
| 1.99 | CCOc1ccc(Cc2cc([C@@H]3O[C@H](CO)[C@@H](O)[C@H](O)[C@H]3O)c3c(c2Cl)C(C)CO3)cc1 (stereo partly drawn) [Example E222, (2S,3R,4R,5S,6R)-2-(4-Chloro-5-(4-ethoxybenzyl)-3-methyl-2,3-dihydrobenzofuran-7-yl)-6-(hydroxymethyl)-tetrahydro-2H-pyran-3,4,5-triol] |
| 3.35 | OC[C@H]1O[C@@H](c2ccc(Cl)c(Cc3ccc4c(c3)CCCS4)c2)[C@H](O)[C@@H](O)[C@@H]1O [Example E061, (2S,3R,4R,5S,6R)-2-(4-Chloro-3-(thiochroman-6-ylmethyl)phenyl)-6-(hydroxymethyl)-tetrahydro-2H-pyran-3,4,5-triol] |
| 3.21 | CCOc1ccc(Cc2cc([C@@H]3O[C@H](CF)[C@@H](O)[C@H](O)[C@H]3O)c3c(c2Cl)OCC3)cc1 [Example E126, (2S,3R,4R,5S,6S)-2-(7-Chloro-6-(4-ethoxybenzyl)-2,3-dihydrobenzofuran-4-yl)-6-(fluoromethyl)tetrahydro-2H-pyran-3,4,5-triol] |
| 1.16 | OC[C@H]1O[C@@H](c2cc(Cc3ccc(C4CCCC4)cc3)c(Cl)c3c2CCO3)[C@H](O)[C@@H](O)[C@@H]1O [Example E233, (2S,3R,4R,5S,6R)-2-(7-Chloro-6-(4-cyclopentylbenzyl)-2,3-dihydrobenzofuran-4-yl)-6-(hydroxymethyl)-tetrahydro-2H-pyran-3,4,5-triol] |
| 35.1 | COc1ccc(Cc2cc([C@@H]3O[C@H](CO)[C@@H](O)[C@H](O)[C@H]3O)c3c(c2Cl)C(=O)CO3)cc1 [Example E195, 4-Chloro-5-(4-methoxybenzyl)-7-((2S,3R,4R,5S,6R)-3,4,5-trihydroxy-6-(hydroxymethyl)tetrahydro-2H-pyran-2-yl)benzofuran-3(2H)-one] |
| 1.22 | COc1ccc(Cc2cc([C@@H]3O[C@H](CO)[C@@H](O)[C@H](O)[C@H]3O)c3c(c2Cl)C(C)CO3)cc1 (stereo partly drawn) [Example E216, (2S,3R,4R,5S,6R)-2-(4-Chloro-5-(4-methoxybenzyl)-3-methyl-2,3-dihydrobenzofuran-7-yl)-6-(hydroxymethyl)tetrahydro-2H-pyran-3,4,5-triol] |
